Numbers after ± are expanded uncertainties.
Details: Liquid, Closed cell (Static) method

Row | Structure (SMILES) | vapor or sublimation pressure (258.15 K) [kPa] | vapor or sublimation pressure (263.15 K) [kPa] | vapor or sublimation pressure (273.15 K) [kPa] | vapor or sublimation pressure (283.15 K) [kPa]
1 | FC(F)C(F)F [1,1,2,2-tetrafluoroethane] | 124.3 ± 1.1 | 153 ± 1.1 | 225.9 ± 1.2 | 323.4 ± 1.5
2 | FC(F)(F)I [trifluoroiodomethane] | 133 ± 1.1 | 160.4 ± 1.1 | 228.4 ± 1.2 | 316.4 ± 1.4
